The source of these data is patent US8975417B2, “Pyrazolopyrrolidine derivatives and their use in the treatment of disease” (Novartis AG, priority 2013, dated 2015).

The structures appear in SMILES notation.

Holding throughout (conditions): biochemical
The target in experiment [1] is His-Brd4(44-477) (Homo sapiens (Human), UniProt O60885). Briefly: TR-FRET in-vitro binding assay for BRD4. How it is done:
(§1) TR-FRET In-Vitro Binding Assays for BRD2, BRD3, and BRD4:
(§2) All assays were performed in 384-well microtiter plates. Each assay plate contained 8-point serial dilutions for 40 test compounds, plus 16 high- and 16 low controls. Liquid handling and incubation steps were done on an Innovadyne Nanodrop Express equipped with a robotic arm (Thermo CatX, Perkin Elmer/Caliper Twister II) and an incubator (Liconic STX40, Thermo Cytomat 2C450). The assay plates were prepared by addition of 50 nl per well of compound solution in 90% DMSO HummingBird nanodispenser (Zinsser Analytic). The assay was started by stepwise addition of 4.5 μL per well of bromo domain protein (50 mM HEPES, pH 7.5, 0.005% Tween20, 0.1% BSA, 50 mM NaCl, 45 nM His-Brd2(60-472) or 45 nM His-Brd3(20-477) or 45 nM His-Brd4(44-477) all proteins produced in-house) and 4.5 μL per well of peptide solution (50 mM HEPES, pH 7.5, 0.005% Tween20, 0.1% BSA, 50 mM NaCl, 60 nM acetyl-histone H4 (AcK 5, 8, 12, 16) (Biosyntan GmbH)). Reactions were incubated at 30° C. for 35 minutes. Subsequently 4.5 μL per well detection mix (50 mM HEPES, pH 7.5, 0.005% Tween20, 0.1% BSA, 50 mM NaCl, 3 nM Eu-labeled anti-His6 antibody, 21 nM streptavidin-allophycocyanin) were added. After minutes incubation at 30° C., plates were measured in a Perkin Elmer EnVision multilabel reader.
(§3) Test compounds were dissolved in DMSO (10 mM) and transferred into 1.4 mL flat bottom or V-shaped Matrix tubes carrying a unique 2D matrix. The stock solutions were stored at […] if not used immediately. For the test procedure the vials were defrosted and identified by a scanner whereby a working sheet was generated that guided the subsequent working steps. Compound dilutions were made in 96 well plates. This format enabled the assay of maximally […] at 8 concentrations (single points) including 4 reference compounds, if desired (known BET inhibitors from the prior art, for this and other assays of the type disclosed herein). The dilution protocol included the production of “pre-dilution plates”, “master plates” and “assay plates”.
(§4) Polypropylene 96-well plates were used as pre-dilution plates. […] All dilution steps were done on a HamiltonSTAR robot.
(§5) 30 μL of individual compound dilutions including standard compound and controls of the 4 “pre-dilution plates” were transferred into a 384-well “master plate” including the following concentrations 10000, […], 1000, 300, 100, 30, 10 and 3 μM, respectively in 90% of DMSO.
(§6) Identical “assay plates” were then prepared by pipetting 50 nL each of compound dilutions of the “master plates” into 384-well “assay plates” by means of a HummingBird 384-channel dispenser. These plates were used directly for the assay which was performed in a total volume of 13.55 μL.
A general note: TR-FRET usually uses a lanthanide donor and a delayed reading to cut background.

Experiment [2] addresses His-Brd2(60-472) (Homo sapiens (Human), UniProt P25440). The experiment is described as follows: TR-FRET in-vitro binding assay for BRD2. How it is done: as §1, §2, §3, §4, §5, §6
The target in experiment [3] is His-Brd3(20-477) (Homo sapiens (Human), UniProt Q15059). Briefly: TR-FRET in-vitro binding assay for BRD3. Here is the method: as §1, §2, §3, §4, §5, §6
Sequence of His-Brd3(20-477) (Q15059 20-477): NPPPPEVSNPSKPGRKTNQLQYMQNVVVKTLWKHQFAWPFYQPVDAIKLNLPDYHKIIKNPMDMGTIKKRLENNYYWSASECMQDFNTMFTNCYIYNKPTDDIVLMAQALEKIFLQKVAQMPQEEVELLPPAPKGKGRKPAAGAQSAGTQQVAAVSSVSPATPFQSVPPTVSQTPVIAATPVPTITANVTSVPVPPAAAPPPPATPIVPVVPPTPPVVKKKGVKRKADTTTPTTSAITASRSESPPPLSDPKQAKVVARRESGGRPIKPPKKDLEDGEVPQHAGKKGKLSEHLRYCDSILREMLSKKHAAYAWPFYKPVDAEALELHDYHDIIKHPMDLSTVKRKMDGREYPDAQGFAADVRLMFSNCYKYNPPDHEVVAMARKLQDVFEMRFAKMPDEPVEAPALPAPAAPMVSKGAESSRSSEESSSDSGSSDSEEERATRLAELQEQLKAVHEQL

Sequence of His-Brd2(60-472) (P25440 60-472): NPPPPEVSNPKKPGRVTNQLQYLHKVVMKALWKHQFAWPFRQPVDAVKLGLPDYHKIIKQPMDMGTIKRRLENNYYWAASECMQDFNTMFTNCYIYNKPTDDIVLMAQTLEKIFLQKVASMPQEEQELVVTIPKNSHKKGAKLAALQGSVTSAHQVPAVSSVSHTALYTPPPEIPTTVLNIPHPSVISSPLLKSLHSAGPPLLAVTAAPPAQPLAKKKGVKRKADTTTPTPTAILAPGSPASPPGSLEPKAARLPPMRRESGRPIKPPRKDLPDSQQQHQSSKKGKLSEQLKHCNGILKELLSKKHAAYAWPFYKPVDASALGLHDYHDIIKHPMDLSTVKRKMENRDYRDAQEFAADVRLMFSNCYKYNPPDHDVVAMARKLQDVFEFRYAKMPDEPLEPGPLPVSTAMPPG

The term IC50 denotes the point on the concentration scale where inhibition reaches its midpoint. Regarding `Cc1c2c(nn1C)C(=O)N(c1cc(F)c(=O)n(C)c1)C2c1ccc(Cl)cc1` (centres unmarked) [Example 31, 4-(4-chlorophenyl)-5-(5-fluoro-1-methyl-6-oxo-1,6-dihydropyridin-3-yl)-2,3-dimethyl-4,5-dihydropyrrolo[3,4-c]pyrazol-6(2H)-one], the IC50 came to 520 nM in experiment [1], 690 nM in experiment [2] and 470 nM in experiment [3].

For the compound `Cn1cc(N2C(=O)c3n[nH]cc3C2c2ccc(Cl)cc2)cc(Cl)c1=O` (centres unmarked) [Example 9, 5-(5-chloro-1-methyl-6-oxo-1,6-dihydropyridin-3-yl)-4-(4-chlorophenyl)-4,5-dihydropyrrolo[3,4-c]pyrazol-6(2H)-one], the values for the half-inhibitory concentration (IC50) in experiment [1], in experiment [2] and in experiment [3] were 170 nM, 210 nM and 180 nM, respectively.

Take `Cc1c2c(nn1C)C(=O)N(c1ccc(=O)n(C)n1)C2c1ccc(Cl)cc1` (centres unmarked) [Example 32, 4-(4-chlorophenyl)-2,3-dimethyl-5-(1-methyl-6-oxo-1,6-dihydropyridazin-3-yl)-4,5-dihydropyrrolo[3,4-c]pyrazol-6(2H)-one]: the IC50 stood at 660 nM in experiment [1], 1200 nM in experiment [2] and 890 nM in experiment [3].

As to `Cc1cc(N2C(=O)c3nn(C)c(C)c3[C@H]2c2ccc(Cl)cc2)cn(C)c1=O` [Example 30, (R)-4-(4-chlorophenyl)-5-(1,5-dimethyl-6-oxo-1,6-dihydropyridin-3-yl)-2,3-dimethyl-4,5-dihydropyrrolo[3,4-c]pyrazol-6(2H)-one], the half-inhibitory concentration (IC50) in experiment [1] was determined as 31 nM.

For `Cc1cc(N2C(=O)c3nn(C4CC4)cc3C2c2ccc(Cl)cc2)cn(C)c1=O` (centres unmarked) [Example 39, 4-(4-chlorophenyl)-2-cyclopropyl-5-(1,5-dimethyl-6-oxo-1,6-dihydropyridin-3-yl)-4,5-dihydropyrrolo[3,4-c]pyrazol-6(2H)-one], the IC50 in experiment [1] came to 120 nM; in experiment [2], 78 nM; in experiment [3], 91 nM.

For the compound `Cn1cc2c(n1)C(=O)N(c1cc(F)c(=O)n(C)c1)C2c1ccc(Cl)cc1` (centres unmarked) [Example 14, 4-(4-chlorophenyl)-5-(5-fluoro-1-methyl-6-oxo-1,6-dihydropyridin-3-yl)-2-methyl-4,5-dihydropyrrolo[3,4-c]pyrazol-6(2H)-one], in experiment [1], the IC50 was 460 nM.

In the case of `Cc1cc(N2C(=O)c3nn(C)c(C)c3[C@@H]2c2ccc(Cl)cc2)cn(C)c1=O` [Example 29, (S)-4-(4-chlorophenyl)-5-(1,5-dimethyl-6-oxo-1,6-dihydropyridin-3-yl)-2,3-dimethyl-4,5-dihydropyrrolo[3,4-c]pyrazol-6(2H)-one], the half-maximal inhibitory concentration (IC50) stood at 31000 nM in experiment [1], 28000 nM in experiment [2] and 25000 nM in experiment [3].

Take `Cc1c2c(nn1C)C(=O)N(c1ccc(=O)n(C)c1)C2c1ccc(Cl)cc1` (centres unmarked) [Example 3, 4-(4-chlorophenyl)-2,3-dimethyl-5-(1-methyl-6-oxo-1,6-dihydropyridin-3-yl)-4,5-dihydropyrrolo[3,4-c]pyrazol-6(2H)-one]: the IC50 in experiment [1] was determined as 400 nM; in experiment [2], 580 nM; in experiment [3], 520 nM.

On to `Cc1nn(C)c2c1C(c1ccc(Cl)cc1)N(c1ccc(=O)n(C)c1)C2=O` (centres unmarked) [Example 4, 4-(4-chlorophenyl)-1,3-dimethyl-5-(1-methyl-6-oxo-1,6-dihydropyridin-3-yl)-4,5-dihydropyrrolo[3,4-c]pyrazol-6(1H)-one], for which the IC50 in experiment [1] worked out at 230 nM.

As to `Cc1cc(N2C(=O)c3nn(C)cc3[C@@H]2c2ccc(Cl)cc2)cn(C)c1=O` [Example 15, (S)-4-(4-chlorophenyl)-5-(1,5-dimethyl-6-oxo-1,6-dihydropyridin-3-yl)-2-methyl-4,5-dihydropyrrolo[3,4-c]pyrazol-6(2H)-one], the IC50 in experiment [3] was above 6700 nM.

The compound `COc1ccc(Cn2nc3c(c2C)C(c2ccc(Cl)cc2)N(c2ccc(=O)n(C)c2)C3=O)cc1` (centres unmarked) [Example 1, 4-(4-chlorophenyl)-2-(4-methoxybenzyl)-3-methyl-5-(1-methyl-6-oxo-1,6-dihydropyridin-3-yl)-4,5-dihydropyrrolo[3,4-c]pyrazol-6(2H)-one] registered a 50% inhibitory concentration (IC50) in experiment [1] of 140 nM.

On to `Cn1cc2c(n1)C(=O)N(c1cc(Cl)c(=O)n(C)c1)C2c1ccc(Cl)cc1` (centres unmarked) [Example 10, 5-(5-chloro-1-methyl-6-oxo-1,6-dihydropyridin-3-yl)-4-(4-chlorophenyl)-2-methyl-4,5-dihydropyrrolo[3,4-c]pyrazol-6(2H)-one], for which the half-inhibitory concentration (IC50) in experiment [1] amounted to 150 nM; in experiment [2], 150 nM; in experiment [3] it was 130 nM.

`Cn1cc2c(n1)C(=O)N(c1cc(Cl)c(=O)n(C)c1)[C@H]2c1ccc(Cl)cc1` [Example 12, (S)-5-(5-chloro-1-methyl-6-oxo-1,6-dihydropyridin-3-yl)-4-(4-chlorophenyl)-2-methyl-4,5-dihydropyrrolo[3,4-c]pyrazol-6(2H)-one]: the IC50 in experiment [1], in experiment [2] and in experiment [3] was above 37000 nM throughout.

`Cc1[nH]nc2c1C(c1ccc(Cl)cc1)N(c1ccc(=O)n(C)c1)C2=O` (centres unmarked) [Example 2, 4-(4-chlorophenyl)-3-methyl-5-(1-methyl-6-oxo-1,6-dihydropyridin-3-yl)-4,5-dihydropyrrolo[3,4-c]pyrazol-6(2H)-one] had an IC50 in experiment [1] of 170 nM.

`Cc1cc(N2C(=O)c3nn(C)cc3C2c2ccc(Cl)cc2)cn(C)c1=O` (centres unmarked) [Example 13, 4-(4-chlorophenyl)-5-(1,5-dimethyl-6-oxo-1,6-dihydropyridin-3-yl)-2-methyl-4,5-dihydropyrrolo[3,4-c]pyrazol-6(2H)-one]: the results for the IC50 in experiment [1], in experiment [2] and in experiment [3] were 130 nM, 180 nM and 150 nM, respectively.

`Cc1cc(N2C(=O)c3nn(C4CC4)c(C)c3[C@@H]2c2ccc(Cl)cc2)cn(C)c1=O` [Example 22, (S)-4-(4-chlorophenyl)-2-cyclopropyl-5-(1,5-dimethyl-6-oxo-1,6-dihydropyridin-3-yl)-3-methyl-4,5-dihydropyrrolo[3,4-c]pyrazol-6(2H)-one] had an IC50 in experiment [2] above 6700 nM.

As to `Cc1c2c(nn1C)C(=O)N(c1ccc3nnc(C)n3c1)C2c1ccc(Cl)cc1` (centres unmarked) [Example 25, 4-(4-chlorophenyl)-2,3-dimethyl-5-(3-methyl-[1,2,4]triazolo[4,3-a]pyridin-6-yl)-4,5-dihydropyrrolo[3,4-c]pyrazol-6(2H)-one], the results for the half-maximal inhibitory concentration (IC50) in experiment [1], in experiment [2] and in experiment [3] were 260 nM, 270 nM and 250 nM, respectively.

As for `Cc1c2c(nn1C)C(=O)N(c1cc(Cl)c(=O)n(C)c1)[C@H]2c1ccc(Cl)cc1` [Example 8, (S)-5-(5-chloro-1-methyl-6-oxo-1,6-dihydropyridin-3-yl)-4-(4-chlorophenyl)-2,3-dimethyl-4,5-dihydropyrrolo[3,4-c]pyrazol-6(2H)-one], the IC50 in experiment [1] was 31000 nM; in experiment [2], 36000 nM; in experiment [3], 27000 nM.

On to `Cn1cc2c(n1)C(=O)N(c1cc(Cl)c(=O)n(C)c1)[C@@H]2c1ccc(Cl)cc1` [Example 11, (R)-5-(5-chloro-1-methyl-6-oxo-1,6-dihydropyridin-3-yl)-4-(4-chlorophenyl)-2-methyl-4,5-dihydropyrrolo[3,4-c]pyrazol-6(2H)-one], for which the IC50 in experiment [1] was 130 nM; in experiment [2], 140 nM; in experiment [3], 100 nM.

The compound `Cc1nn(C2CC2)c2c1C(c1ccc(Cl)cc1)N(c1cc(C)c(=O)n(C)c1)C2=O` (racemic) [Example 23, 4-(4-chlorophenyl)-1-cyclopropyl-5-(1,5-dimethyl-6-oxo-1,6-dihydropyridin-3-yl)-3-methyl-4,5-dihydropyrrolo[3,4-c]pyrazol-6(1H)-one] displayed an IC50 in experiment [1] of 66 nM.
